Consider twelve molecules from patent US20160046618A1, “Cyclopropyl Fused Thiazin-2-Amine Compounds as Beta-Secretase Inhibitors and Methods of Use” (AMGEN INC., priority 2014, published 2016).

Where two headings read alike, the source gives them in different places.

The subject of one test is Aβ 40 in rat CSF. Nature of the test: In vivo inhibition of beta-secretase: Aβ40 reduction in rat CSF. The note with it: after 4 h. From the text:
(§1) In Vivo Inhibition of Beta-Secretase
Several animal models, including mouse, rat, dog, and monkey, may be used to screen for inhibition of beta-secretase activity in vivo following administration of a test compound sample. Animals used in this invention can be wild type, transgenic, or gene knockout animals. For example, the Tg2576 mouse model, prepared and conducted as described in Hsiao et al., 1996, Science 274, 99-102, and other non-transgenic or gene knockout animals are useful to analyze in vivo inhibition of Amyloid beta peptide (Abeta) production in the presence of inhibitory test compounds. Generally, 2 to 18 month old Tg2576 mice, gene knockout mice or non-transgenic animals are administered test compounds formulated in vehicles, such as cyclodextran, phosphate buffers, hydroxypropyl methylcellulose or other suitable vehicles. One to twenty-four hours following the administration of compound, animals are sacrificed, and brains as well as cerebrospinal fluid (CSF) and plasma are removed for analysis of A-beta levels and drug or test compound concentrations (Dovey et al., 2001, Journal of Neurochemistry, 76,173-181) Beginning at time 0, animals are administered by oral gavage, or other means of delivery such as intravenous injection, an inhibitory test compound of up to 100 mg/kg in a standard, conventional formulation, such as 2% hydroxypropyl methylcellulose, 1% Tween80. A separate group of animals receive 2% hydroxypropyl methylcellulose, 1% Tween80 alone, containing no test compound, and serve as a vehicle-control group. At the end of the test period, animals are sacrificed and brain tissues, plasma or cerebrospinal fluid are collected. […] Homogenates are centrifuged at 355,000 g, 4° C. for 30 minutes. CSF or brain supernatants are then analyzed for the presence of A-beta peptide by specific sandwich ELISA assays based on ECL (Electrochemiluminescence) technology. For example, rat Abeta40 is measured using biotinylated-4G8 (Signet) as a capture antibody and Fab40 (an in-house antibody specific to the C-terminal of Abeta40) as a detection antibody. For example, 4 hours after administration of 30 mg/kg oral dose of the test compound in 2% hydroxypropyl methylcellulose, 1% Tween80 (pH2.2) to 200 g male Sprague Dawley rats, amyloid beta peptide levels are measured for reduction by X % and Y % in cerebrospinal fluid and brain, respectively, when compared to the levels measured in the vehicle-treated or control mice.
(§2) Actual vehicles used: Oral: 2% HPMC, 1% Tween80, pH 2.2
The compounds of the invention may be shown to reduce the formation and/or deposition of amyloid beta peptide in the cerebrospinal fluid (CSF) as well as in the brain of a mouse or rat at either 3 mpk, 10 mpk or 30 mpk (mpk=mg compound per kg weight of the animal) dosing concentrations after 4 h.

The target of a further test is human recombinant BACE1 (Homo sapiens (Human), UniProt P56817). Nature of the test: In vitro enzymatic BACE1 FRET assay. The note with it: read-out: IC50 IP (μM) BACE1 enzyme. Format: biochemical. In short, it runs like this: (§3)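 Read-out: dequenched fluorescence, excitation 488 nm, emission 590 nm, after proteolysis of a quenched peptide spanning the BACE cleavage site. Substrate at 50 nM, 1 h incubation, termination by Tris addition to neutral pH.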

A further test has as its target Recombinant Cat D (Homo sapiens (Human), UniProt P07339). Nature of the test: In vitro enzymatic Cathepsin D (Cat D) FRET assay. The test is classed as biochemical. Conditions: read-out: IC50 IP (μM) CatD. In short, it runs like this:
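Cleavage of a 20 nM fluorophore/quencher peptide by CHO-expressed recombinant Cat D proceeded for one hour at pH 3.5 (0.05 M citrate, 5 mM CHAPS, 10% DMSO final). Tris addition neutralized the pH to end the reaction. Fluorescence was then measured (ex 500 nm/em 580 nm).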

A further test deals with Aβ 40 in rat brain. Description: In vivo inhibition of beta-secretase: Aβ40 reduction in rat brain. The note with it: after 4 h.
Source text: as §1
Several animal models, including mouse, rat, dog, and monkey, may be used to screen for inhibition of beta-secretase activity in vivo following administration of a test compound sample. Animals used in this invention can be wild type, transgenic, or gene knockout animals. […] One to twenty-four hours following the administration of compound, animals are sacrificed, and brains as well as cerebrospinal fluid (CSF) and plasma are removed for analysis of A-beta levels and drug or test compound concentrations (Dovey et al., 2001, Journal of Neurochemistry, 76,173-181) Beginning at time 0, animals are administered by oral gavage, or other means of delivery such as intravenous injection, an inhibitory test compound of up to 100 mg/kg in a standard, conventional formulation, such as 2% hydroxypropyl methylcellulose, 1% Tween80. A separate group of animals receive 2% hydroxypropyl methylcellulose, 1% Tween80 alone, containing no test compound, and serve as a vehicle-control group. At the end of the test period, animals are sacrificed and brain tissues, plasma or cerebrospinal fluid are collected. […] Homogenates are centrifuged at 355,000 g, 4° C. for 30 minutes. CSF or brain supernatants are then analyzed for the presence of A-beta peptide by specific sandwich ELISA assays based on ECL (Electrochemiluminescence) technology. For example, rat Abeta40 is measured using biotinylated-4G8 (Signet) as a capture antibody and Fab40 (an in-house antibody specific to the C-terminal of Abeta40) as a detection antibody.
as §2

Test [1] has as its system Aβ40 in conditioned medium of cells stably expressing Amyloid Precursor Protein (APP). Description: In vitro BACE-1 cell-based assay (Aβ40 sandwich ELISA). Conditions: read-out: IC50 IP (μM) BACE1 cell. In short, it runs like this:
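Read-out: time-resolved fluorescence (Streptavidin-Europium) of Aβ40 captured by pAb40 and detected with biotinylated 6E10 from supernatants of APP-stable cells. Cells were exposed to compound for 24 h, 10-point dose response, top dose 100 μM or 10 μM, 0.1% DMSO. IC50 fitted to percent of control.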

The target of another test is human recombinant BACE2 (Homo sapiens (Human), UniProt Q9Y5Z0). Description: In vitro enzymatic BACE2 FRET assay. The test is classed as biochemical. Conditions: read-out: IC50 IP (μM) BACE2 enzyme. The method, boiled down: as §3
Chain of human recombinant BACE2 (Q9Y5Z0 63-518): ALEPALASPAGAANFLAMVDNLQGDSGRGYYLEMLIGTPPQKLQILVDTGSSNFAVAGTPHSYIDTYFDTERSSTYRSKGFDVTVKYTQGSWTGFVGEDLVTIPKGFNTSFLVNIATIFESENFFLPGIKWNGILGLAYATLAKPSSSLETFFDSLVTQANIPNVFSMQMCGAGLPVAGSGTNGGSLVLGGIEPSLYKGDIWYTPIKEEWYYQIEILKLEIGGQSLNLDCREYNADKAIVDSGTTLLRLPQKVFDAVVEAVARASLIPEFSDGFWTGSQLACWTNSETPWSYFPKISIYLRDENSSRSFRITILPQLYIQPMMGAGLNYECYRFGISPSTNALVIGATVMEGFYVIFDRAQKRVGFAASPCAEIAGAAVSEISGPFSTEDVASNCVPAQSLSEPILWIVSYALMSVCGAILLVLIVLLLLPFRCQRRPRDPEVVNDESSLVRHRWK

Chain of Recombinant Cat D (P07339 65-412): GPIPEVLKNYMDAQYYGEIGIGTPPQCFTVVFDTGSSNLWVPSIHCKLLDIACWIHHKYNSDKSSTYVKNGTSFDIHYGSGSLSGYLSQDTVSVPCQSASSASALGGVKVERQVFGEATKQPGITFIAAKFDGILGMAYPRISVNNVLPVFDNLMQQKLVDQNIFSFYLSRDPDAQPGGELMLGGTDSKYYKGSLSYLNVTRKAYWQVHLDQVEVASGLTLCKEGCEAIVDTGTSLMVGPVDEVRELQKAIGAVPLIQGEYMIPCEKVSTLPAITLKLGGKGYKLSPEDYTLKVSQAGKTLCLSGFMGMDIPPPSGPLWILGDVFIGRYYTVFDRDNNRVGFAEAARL
Chain of human recombinant BACE1 (P56817 46-501): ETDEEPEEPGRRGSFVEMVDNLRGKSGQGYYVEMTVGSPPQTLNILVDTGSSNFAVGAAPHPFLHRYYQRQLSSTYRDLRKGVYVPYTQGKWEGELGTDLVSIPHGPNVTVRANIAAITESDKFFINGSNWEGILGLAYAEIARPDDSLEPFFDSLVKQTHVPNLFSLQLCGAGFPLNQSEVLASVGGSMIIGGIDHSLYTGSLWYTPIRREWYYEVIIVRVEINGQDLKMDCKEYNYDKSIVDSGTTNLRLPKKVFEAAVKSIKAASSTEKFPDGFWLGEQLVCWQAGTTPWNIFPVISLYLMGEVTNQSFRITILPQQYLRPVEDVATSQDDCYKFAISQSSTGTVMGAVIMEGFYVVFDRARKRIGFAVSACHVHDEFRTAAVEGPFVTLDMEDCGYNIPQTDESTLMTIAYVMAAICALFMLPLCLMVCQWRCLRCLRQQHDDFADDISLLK

As to `C#CCOc1cnc(C(=O)Nc2cc(F)c(F)c([C@@]3(C)N=C(N)S[C@@]4(C(F)F)C[C@@H]34)c2)cn1` [Example 807, N-(3-((1S,5S,6S)-3-amino-1-(difluoromethyl)-5-methyl-2-thia-4-azabicyclo[4.1.0]hept-3-en-5-yl)-4,5-difluorophenyl)-5-(2-propyn-1-yloxy)-2-pyrazinecarboxamide], the “% Aβ 40 reduction in rat CSF (3 mpk)” value in the test on Aβ 40 in rat CSF was 80 (3 mpk) %.

One may read the IC50 as the concentration needed to halve the response being measured. With `N#Cc1cnc2c(Nc3cc(F)c(F)c([C@@]4(CF)N=C(N)S[C@H]5C[C@H]54)c3)nccc2c1` [Example 26, 8-((3-((1S,5S,6S)-3-amino-5-(fluoromethyl)-2-thia-4-azabicyclo[4.1.0]hept-3-en-5-yl)-4,5-difluorophenyl)amino)-1,7-naphthyridine-3-carbonitrile], the “% Aβ 40 reduction in rat CSF at 10 mpk” value with Aβ 40 in rat CSF was 38%. The IC50 at human recombinant BACE1 (BACE1 FRET enzyme assay) was 0.0107 µM; on Recombinant Cat D (Cathepsin D FRET enzyme assay) it was above 133 µM; in test [1] (BACE1 cell-based assay), 0.0213 µM. The “% Aβ 40 reduction in rat brain at 10 mpk” value in the test on Aβ 40 in rat brain worked out at 34%.

As to `COc1cnc(C(=O)Nc2ccc(F)c([C@@]3(CF)N=C(N)S[C@H]4C[C@H]43)c2)cn1` [Example 4, N-(3-((1S,5S,6S)-3-amino-5-(fluoromethyl)-2-thia-4-azabicyclo[4.1.0]hept-3-en-5-yl)-4-fluorophenyl)-5-methoxy-2-pyrazinecarboxamide], in the test on Aβ 40 in rat CSF, the “% Aβ 40 reduction in rat CSF at 10 mpk” value amounted to 40%. In addition, the figures for the IC50 (on human recombinant BACE1 (BACE1 FRET enzyme assay); on Recombinant Cat D (Cathepsin D FRET enzyme assay); in test [1] (BACE1 cell-based assay)) were 0.0696 µM, 1840 µM and 0.0164 µM, respectively. Also, the “% Aβ 40 reduction in rat brain at 10 mpk” value in the test with Aβ 40 in rat brain was 18%.

In the case of `C#CCOc1cnc(C(=O)Nc2cc(F)c(F)c([C@@]3(C)N=C(N)S[C@@]4(CF)C[C@H]43)c2)cn1` [Example 810, N-(3-((1S,5S,6S)-3-amino-1-(fluoromethyl)-5-methyl-2-thia-4-azabicyclo[4.1.0]hept-3-en-5-yl)-4,5-difluorophenyl)-5-(prop-2-yn-1-yloxy)pyrazine-2-carboxamide], the “% Aβ 40 reduction in rat CSF (3 mpk)” value in the test on Aβ 40 in rat CSF is on record as 79 (3 mpk) %. Besides, the “% Aβ 40 reduction in rat brain (3 mpk)” value with Aβ 40 in rat brain is listed as 74 (3 mpk) %.

Regarding `COC[C@]12C[C@H]1[C@@](C)(c1cc(NC(=O)c3cnc(OCC(F)(F)F)cn3)cc(F)c1F)N=C(N)S2` [Example 815, N-(3-((1S,5S,6S)-3-amino-1-(methoxymethyl)-5-methyl-2-thia-4-azabicyclo[4.1.0]hept-3-en-5-yl)-4,5-difluorophenyl)-5-(2,2,2-trifluoroethoxy)-2-pyrazinecarboxamide], in the test with Aβ 40 in rat CSF, the “% Aβ 40 reduction in rat CSF at 10 mpk” value stood at 50%.

On to `NC1=N[C@](CF)(c2cc(Nc3ncnc4cc(Cl)cnc34)ccc2F)[C@H]2C[C@@H]2S1` [Example 39, N-(3-((1S,5S,6S)-3-amino-5-(fluoromethyl)-2-thia-4-azabicyclo[4.1.0]hept-3-en-5-yl)-4-fluorophenyl)-7-chloropyrido[3,2-d]pyrimidin-amine], for which the “% Aβ 40 reduction in rat CSF at 10 mpk” value in the test with Aβ 40 in rat CSF was 50%. Moreover, the “% Aβ 40 reduction in rat brain at 10 mpk” value with Aβ 40 in rat brain is reported as 23%. In addition, the IC50 in test [1] (BACE1 cell-based assay) is 0.024 µM.

Turning to `C[C@]1(c2cc(NC(=O)c3ccc(Cl)cn3)cc(F)c2F)N=C(N)S[C@@]2(CF)C[C@H]21` [Example 12, N-(3-((1S,5S,6S)-3-amino-1-(fluoromethyl)-5-methyl-2-thia-4-azabicyclo[4.1.0]hept-3-en-5-yl)-4,5-difluorophenyl)-5-chloropicolinamide], the “% Aβ 40 reduction in rat CSF at 10 mpk” value with Aβ 40 in rat CSF came out at 75%.

Consider `[2H]C([2H])([2H])OC[C@]12C[C@H]1[C@@](C)(c1cc(NC(=O)c3cnc(OCC#C)cn3)cc(F)c1F)N=C(N)S2` [Example 969, N-(3-((1S,5S,6S)-3-amino-5-methyl-1-(((trideuterium)methyloxy)methyl)-2-thia-4-azabicyclo[4.1.0]hept-3-en-5-yl)-4,5-difluorophenyl)-5-(2-propyn-1-yloxy)-2-pyrazinecarboxamide], for which, in the test with Aβ 40 in rat CSF, the “% Aβ 40 reduction in rat CSF (3 mpk)” value is listed as 79 (3 mpk) %. Moreover, the “% Aβ 40 reduction in rat brain (3 mpk)” value with Aβ 40 in rat brain is given as 79 (3 mpk) %. For the same molecule, the IC50 in test [1] worked out at 0.000687 µM.

On to `C#CCOc1cnc(C(=O)Nc2cc(F)c(F)c([C@@]3(C)N=C(N)S[C@@]4(COC)C[C@H]43)c2)cn1` [Example 72, N-(3-((1S,5S,6S)-3-amino-1-(methoxymethyl)-5-methyl-2-thia-4-azabicyclo[4.1.0]hept-3-en-5-yl)-4,5-difluorophenyl)-5-(2-propyn-1-yloxy)-2-pyrazinecarboxamide], for which the “% Aβ 40 reduction in rat CSF at 10 mpk” value in the test on Aβ 40 in rat CSF turned out to be 85%. Further, the IC50 in test [1] (BACE1 cell-based assay) is 0.00082 µM.

Regarding `C[C@]1(c2cc(NC(=O)c3ccc(Cl)cn3)cc(F)c2F)N=C(N)S[C@H]2C[C@H]21` [Example 6, N-(3-((1S,5S,6S)-3-amino-5-methyl-2-thia-4-azabicyclo[4.1.0]hept-3-en-5-yl)-4,5-difluorophenyl)-5-chloro-2-pyridinec arboxamide], the “% Aβ 40 reduction in rat CSF at 10 mpk” value in the test on Aβ 40 in rat CSF worked out at 78%.

As for `C#CCOc1cnc2c(Nc3ccc(F)c([C@@]4(CF)N=C(N)S[C@@]5(c6cnco6)C[C@@H]45)c3)nccc2n1` [Example 781, N-(3-((1S,5S,6S)-3-amino-5-(fluoromethyl)-1-(1,3-oxazol-5-yl)-2-thia-4-azabicyclo[4.1.0]hept-3-en-5-yl)-4-fluorophenyl)-2-(2-propyn-1-yloxy)pyrido[3,4-b]pyrazin-5-amine], the IC50 is 0.00329 µM on human recombinant BACE2, 0.000422 µM at human recombinant BACE1, 397 µM on Recombinant Cat D and 0.00577 µM in test [1].

Take `C[C@]1(c2cc(NC(=O)c3cnc(OCC(F)(F)F)cn3)ccc2F)N=C(N)S[C@@]2(C(=O)NCC(F)(F)F)C[C@H]21` [Example 972, (1S,5S,6S)-3-amino-5-(2-fluoro-5-(5-(2,2,2-trifluoroethoxy)pyrazine-2-carboxamido)phenyl)-5-methyl-N-(2,2,2-trifluoroethyl)-2-thia-4-azabicyclo[4.1.0]hept-3-ene-1-carboxamide]: the IC50 on human recombinant BACE2 was found to be 0.0794 µM; at human recombinant BACE1 it was 0.000454 µM; at Recombinant Cat D, 138 µM; in test [1], 0.00455 µM.
